Tests used:
TLR9 [1] = assay: TLR9-induced IL-6 in murine splenocytes (CpG1826, ELISA); assay type: cell-based, C57BL/6 mice; conditions: Mus musculus, Splenocyte; read-out: TLR9-ligand induced IL-6 in murine splenocytes IC50
Experimental: 2.2 Determination of TLR9-Induced IL-6 in Murine Splenocytes
Spleens were dissected from C57BL/6 mice immediately following euthanasia. Excess fat was trimmed from the spleens prior to mashing the spleen through a […] cell strainer using a plunger from a 5 ml syringe. A single cell suspension was prepared and the volume was adjusted to 15 ml in a 50 ml Falcon tube using cold PBS. Cells were centrifuged at 1500 rpm for 5 minutes at 4° C. degrees prior to removal of supernatant and re-suspension in 5 ml of red blood cell lysis buffer per spleen and incubation for 5 minutes at room temperature. Ice cold PBS (30 ml) was added to the cells prior to centrifugation at 1500 rpm for 5 minutes at 4° C. The supernatant was removed and the cells were washed twice with 40 ml of murine splenocyte culture media (MSCM). […] Cells were re-suspended in 10-20 ml of MSCM and counted using a Countess cell counter. […]
After overnight culture, cells were transferred to 96-well V-bottomed plates and centrifuged at 2000 rpm for 5 minutes at room temperature. Subsequently 150 μl of each culture supernatant was transferred to 96-well flat-bottomed plates and […] were measured using commercially available mouse IL-6 sandwich ELISA kit (R&D systems). […] IL-6 levels were measured using a SpectraMax 190 Plate Reader (450 nm) and analyzed using SoftMax Pro and GraphPad Prism software.

TLR9 [2] = assay: TLR9-induced IFNalpha in human PBMC (CpG2216, AlphaLISA); assay type: cell-based; conditions: read-out: TLR9-ligand induced IFNα in human PBMC IC50
Experimental: (§1) 2.4 Determination of TLR9-Induced IFNalpha in Human Peripheral Blood Mononuclear Cells (PBMCs) and Isolated Plasmacytoid Dendritic Cells (pDCs)
Human blood (ca. 75 ml) was collected in 10 S-Monovette tubes containing Heparin (S-Monovette 7.5 mL NH Heparin 16 IU/mL blood; Starstedt). Leucosep™ tubes (30 mL #227290; Greiner Bio-one) were prepared by addition of 15 ml lymphocyte separation medium LSM1077™ per tube (#J15-004; PAA Laboratories) and centrifugation for 30 sec at 1000 g. Some 25 ml blood was transferred to Leucosep™ tubes following dilution with equal parts of PBS (without Ca2+/Mg2+; #14190-094). […] The PBMC were counted using a Countess® Automated cell counter (sample was pre-diluted 1:10 in Media, prior to the addition of equal volume (10 μl) of Trypan Blue). […]
(§2) Compounds were pre-diluted in 100% v/v DMSO (#41640-100 mL; Sigma-Aldrich), followed by transfer in Media (to achieve a final DMSO concentration of 0.25%). […] Plates were briefly centrifuged (200×g for 2 min at 22° C.) and supernatant samples (30 μl) removed for quantification of IFNα levels.
For quantification of IFNalpha the human interferon AlphaLISA Kit (#AL264F) from PerkinElmer was used. […] Data were collected for analysis and quantification of IFNα levels.
Data were analysed using Excel XL fit 4.0 (Microsoft) with XLfit add-in (IDBS; version 4.3.2). […]

TLR9 [3] = assay: TLR9-induced IFNalpha in isolated human pDCs (CpG2216, AlphaLISA); assay type: cell-based; conditions: read-out: TLR9-ligand induced IFNα in human pDCs IC50
Experimental: as §1
Human PBMCs were prepared using Buffy Coats as source material from healthy donations (approx. 50 ml obtained from Blutspendezentrum SRK Basel) and processed as indicated above. […]
as §2
For quantification of IFNalpha the human interferon AlphaLISA Kit (#AL264F) from PerkinElmer was used. […] After incubation, the plates were read with an EnVision™ multiplate reader equipped with the ALPHA option using the instrument's own “AlphaScreen standard settings” (e.g. total measurement time: 550 ms, Laser 680 nm excitation time: 180 ms, mirror: D640 as, emission filter: M570w, center wavelength 570 nm, bandwidth 100 nm, transmittance 75%). Data were collected for analysis and quantification of IFNα levels.
Data were analysed using Excel XL fit 4.0 (Microsoft) with XLfit add-in (IDBS; version 4.3.2). Specific IFNα concentrations were determined following extrapolation to standard curves using human IFNα B (2b). […]

PI3K alpha = target: T1, PI3K alpha (Homo sapiens, UniProt P42336); assay: Enzymatic PI3K alpha isoform inhibition (lipid kinase activity, Kinase-Glo); assay type: biochemical; conditions: Enzymatic Assay
T1 construct: His tag (C); made in house; host or cells: baculovirus; Tn5 (Trichoplusia ni) or TiniPro insect cells
Experimental: (§3) 1 Determination of Enzymatic PI3K Alpha and PI3K Delta Isoform Inhibition
(§4) 1.1 Test of Lipid Kinase Activity
(§5) The kinase reaction is performed in a final volume of 50 μl per well of a half area COSTAR, 96 well plate. The final concentrations of ATP and phosphatidyl inositol in the assay are 5 μM and 6 μg/mL, respectively. The reaction is started by the addition of PI3 kinase, e.g. PI3 kinase δ.
(§6) p110δ. The components of the assay are added per well as follows: • 10 μl test compound in 5% DMSO per well in […]. • Total activity is determined by addition 10 μl of 5% vol/vol DMSO in the first 4 wells of column 1 and the last 4 wells of column 12. • The background is determined by addition of 10 μM control compound to the last 4 wells of column 1 and the first 4 wells of column 12. • 2 mL ‘Assay mix’ are prepared per plate: • 1.912 mL of HEPES assay buffer • 8.33 μl of 3 mM stock of ATP giving a final concentration of 5 μM per well • 1 μl of [^33P]ATP on the activity date giving 0.05 μCi per well • 30 μl of 1 mg/mL PI stock giving a final concentration of 6 μg/mL per well • 5 μl of 1 M stock MgCl2 giving a final concentration of 1 mM per well • 20 μl of the assay mix are added per well. • 2 mL ‘Enzyme mix’ are prepared per plate (x* μl PI3 kinase p110β in 2 mL of kinase buffer). The ‘Enzyme mix’ is kept on ice during addition to the assay plates. The volume of enzyme is dependent on the enzymatic activity of the batch in use. • 20 μl ‘Enzyme mix’ are added/well to start the reaction. • The plate is then incubated at room temperature for 90 minutes. • The reaction is terminated by the addition of 50 μl WGA-SPA bead (wheat germ agglutinin-coated Scintillation Proximity Assay beads) suspension per well. • The assay plate is sealed using TopSeal-S (heat seal for polystyrene microplates, PerkinElmer LAS [Deutschland] GmbH, Rodgau, Germany) and incubated at room temperature for at least 60 minutes. • The assay plate is then centrifuged at 1500 rpm for 2 minutes using the Jouan bench top centrifuge (Jouan Inc., Nantes, France). • The assay plate is counted using a Packard TopCount, each well being counted for 20 seconds.
(§7) The final concentrations of ATP and phosphatidyl inositol (PI) in the assay are 1 μM and 10 μg/mL, respectively. The reaction is started by the addition of ATP.
(§8) The components of the assay are added per well as follows:
(§9) IC50 is determined by a four parameter curve fitting routine that comes along with “excel fit”.
(§10) To start the reaction, 10 μl of 10 nM PI3 kinase and 5 μg/mL 1-alpha-phosphatidylinositol (PI) are added into each well followed by 10 μl of 2 μM ATP. The reaction is performed until approx 50% of the ATP is depleted, and then stopped by the addition of 20 μl of Kinase-Glo solution (Promega Corp., Madison, Wis., USA). The stopped reaction is incubated for 5 minutes and the remaining ATP is then detected via luminescence. IC50 values are then determined.

PI3K delta = PI3K delta (Homo sapiens, UniProt O00329); assay: Enzymatic PI3K delta isoform inhibition (lipid kinase activity, Kinase-Glo); assay type: biochemical; design: for the full-length p110-d subunit are generated and fused by overlapping PCR; His tag (C); made in house; host or cells: baculovirus; Tn5 (Trichoplusia ni) or TiniPro insect cells; conditions: Enzymatic Assay
Experimental: as §3, §4, §5, §6, §7, §8, §9, §10

T1 sequence (P42336 with tags, fused parts or gaps limits assumed): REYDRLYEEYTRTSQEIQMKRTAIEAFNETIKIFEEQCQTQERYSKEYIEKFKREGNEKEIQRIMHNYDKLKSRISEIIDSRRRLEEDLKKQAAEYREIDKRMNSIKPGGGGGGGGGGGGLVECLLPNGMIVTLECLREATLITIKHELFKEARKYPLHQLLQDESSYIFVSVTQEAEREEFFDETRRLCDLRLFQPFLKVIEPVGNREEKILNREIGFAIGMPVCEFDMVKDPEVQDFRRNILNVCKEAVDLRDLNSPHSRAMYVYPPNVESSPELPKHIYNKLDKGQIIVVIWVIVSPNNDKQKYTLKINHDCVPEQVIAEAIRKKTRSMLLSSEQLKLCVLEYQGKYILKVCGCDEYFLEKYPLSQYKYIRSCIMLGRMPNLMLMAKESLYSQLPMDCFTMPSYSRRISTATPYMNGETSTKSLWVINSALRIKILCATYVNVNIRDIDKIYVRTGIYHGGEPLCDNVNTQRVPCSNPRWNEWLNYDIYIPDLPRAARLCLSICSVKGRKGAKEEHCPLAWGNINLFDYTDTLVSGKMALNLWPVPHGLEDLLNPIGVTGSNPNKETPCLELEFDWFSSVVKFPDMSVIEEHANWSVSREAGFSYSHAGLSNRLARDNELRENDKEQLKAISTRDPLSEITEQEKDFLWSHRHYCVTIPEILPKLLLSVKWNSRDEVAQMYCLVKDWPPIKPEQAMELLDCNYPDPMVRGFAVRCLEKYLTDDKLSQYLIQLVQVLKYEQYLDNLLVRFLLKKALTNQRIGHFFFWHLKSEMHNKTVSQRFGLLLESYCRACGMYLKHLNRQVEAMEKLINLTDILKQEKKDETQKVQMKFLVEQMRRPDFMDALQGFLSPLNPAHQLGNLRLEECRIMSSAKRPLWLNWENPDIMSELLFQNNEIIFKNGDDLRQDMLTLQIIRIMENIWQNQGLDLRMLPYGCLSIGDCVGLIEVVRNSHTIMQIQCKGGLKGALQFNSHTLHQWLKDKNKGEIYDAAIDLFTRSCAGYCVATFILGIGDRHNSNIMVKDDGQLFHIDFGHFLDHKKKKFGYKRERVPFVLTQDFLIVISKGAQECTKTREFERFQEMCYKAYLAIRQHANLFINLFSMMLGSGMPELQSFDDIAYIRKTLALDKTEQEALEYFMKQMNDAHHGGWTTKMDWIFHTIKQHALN
Chain of PI3K delta (O00329 with tags, fused parts or gaps limits assumed): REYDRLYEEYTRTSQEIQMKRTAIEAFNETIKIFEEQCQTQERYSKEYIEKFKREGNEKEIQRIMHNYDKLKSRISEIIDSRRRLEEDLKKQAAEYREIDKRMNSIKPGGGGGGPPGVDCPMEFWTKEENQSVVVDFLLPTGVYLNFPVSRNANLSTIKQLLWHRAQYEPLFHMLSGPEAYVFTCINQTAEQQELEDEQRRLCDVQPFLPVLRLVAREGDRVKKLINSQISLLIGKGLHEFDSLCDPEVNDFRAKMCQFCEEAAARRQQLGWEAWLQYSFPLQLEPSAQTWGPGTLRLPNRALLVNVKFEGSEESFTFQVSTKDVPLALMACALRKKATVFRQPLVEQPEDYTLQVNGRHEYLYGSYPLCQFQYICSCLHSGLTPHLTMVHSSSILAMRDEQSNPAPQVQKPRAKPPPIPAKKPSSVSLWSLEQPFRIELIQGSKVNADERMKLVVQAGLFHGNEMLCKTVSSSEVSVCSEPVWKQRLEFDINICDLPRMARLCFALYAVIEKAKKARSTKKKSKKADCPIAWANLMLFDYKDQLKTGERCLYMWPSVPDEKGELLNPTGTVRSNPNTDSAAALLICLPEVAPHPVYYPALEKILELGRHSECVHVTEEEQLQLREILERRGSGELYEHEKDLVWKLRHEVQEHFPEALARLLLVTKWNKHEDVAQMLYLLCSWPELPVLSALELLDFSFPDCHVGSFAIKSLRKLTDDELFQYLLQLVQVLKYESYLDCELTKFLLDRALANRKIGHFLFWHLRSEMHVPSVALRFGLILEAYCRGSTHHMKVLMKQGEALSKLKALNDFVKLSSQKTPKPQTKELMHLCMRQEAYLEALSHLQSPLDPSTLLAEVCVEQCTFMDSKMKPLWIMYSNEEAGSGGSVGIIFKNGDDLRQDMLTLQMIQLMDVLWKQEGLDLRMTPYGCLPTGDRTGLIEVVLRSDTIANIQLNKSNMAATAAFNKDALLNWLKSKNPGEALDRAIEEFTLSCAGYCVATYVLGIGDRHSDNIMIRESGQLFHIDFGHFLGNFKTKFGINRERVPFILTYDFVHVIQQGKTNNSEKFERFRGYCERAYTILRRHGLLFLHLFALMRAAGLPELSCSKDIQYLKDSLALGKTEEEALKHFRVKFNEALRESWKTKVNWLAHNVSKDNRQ

SMILES | IC50 (TLR9 [1]) [nM] | IC50 (TLR9 [2]) [nM] | IC50 (TLR9 [3]) [nM] | IC50 (PI3K alpha) [nM] | IC50 (PI3K delta) [nM]
COc1ncc(N2CCc3ncnc(O[C@H]4CCN(C(=O)C5CCOCC5)C4)c3C2)cc1C [Example 1, {(S)-3-[6-(6-Methoxy-5-methyl-pyridin-3-yl)-5,6,7,8-tetrahydro-pyrido[4,3-d]pyrimidin-4-yloxy]-pyrrolidin-1-yl}-(tetrahydro-pyran-4-yl)-methanone] | 327 | 211 | 50 | – | –
Cc1ccc(-c2ccc3ncnc(-c4cccc(C(=O)N5CCN(C)CC5)c4)c3c2)cn1 [19′] | – | – | – | 678 | 11.5
CC1(C)CN(C(=O)c2cncc(-c3ncnc4ccc(-c5cnc(N)nc5)cc34)c2)CCO1 [65′] | – | – | – | 640 | 10
COc1ccc(-c2ccc3ncnc(-c4cccc(C(=O)N5CCN(C)CC5)c4)c3c2)cc1S(=O)(=O)N1CCCC1 [22′, (3-{6-[4-Methoxy-3-(pyrrolidine-1-sulfonyl)-phenyl]-quinazolin-4-yl}-phenyl)-(4-methyl-piperazin-1-yl)-methanone] | – | – | – | 790 | 11.5
COc1ccc(-c2ccc3ncnc(-c4cccc(C(=O)N5CCN(C(C)=O)CC5)c4)c3c2)cc1C(F)(F)F [9′] | – | – | – | 1400 | 10

More lines, now with the values ahead:

IC50 (TLR9 [1]) [nM] | IC50 (TLR9 [2]) [nM] | IC50 (TLR9 [3]) [nM] | IC50 (PI3K alpha) [nM] | IC50 (PI3K delta) [nM] | SMILES
– | – | – | 589 | 8.62 | CC(=O)N1CCN(C(=O)c2cccc(-c3ncnc4ccc(-c5ccc(C)nc5)cc34)c2)CC1 [6′]
– | – | – | – | ≤ 2.67 | COc1ccc(-c2ccc3ncnc(-c4cccc(C(=O)N5CCNC(C)(C)C5)c4)c3c2)cn1 [88′]
